Where a name gives a salt, the structure may show the parent alone. Read-outs that look alike come from different tables or passages of the source.

The values below come from patent publication US20210236497A1 (priority 2020, published 2021).

Series [1] has as its system nCoV-2019 (SARS-CoV2) infected Vero E6 cells. As to the kind of experiment: microbe, parasite or virus in culture. It is filed as cell-based, SARS-CoV-2. The following applies: for inhibition at 0.075 µM: Severe acute respiratory syndrome coronavirus 2, Vero C1008, 0.075 μM.
For series [2] the following is noted: Rats; total of multi dose; cited from earlier work.
For series [3] the following is noted: cited from earlier work; for Observed toxic effect: humans.
The conditions of series [4]: African green monkeys; 1.6 mg/kg x 14 days; total dose 22.4; cited from earlier work.
The conditions of series [5]: mice; following 12 days post injection; cited from earlier work.

Usually inhibition stands for how much of the control response was suppressed. A low value points to little suppression. As for `NC(=O)c1cn([C@@H]2O[C@H](CO)[C@@H](O)[C@H]2O)c2ncnc(N)c12` [Oya2, 4-amino-7-((2R,3R,4S,5R)-3,4-dihydroxy-5-(hydroxymethyl)tetrahydrofuran-2-yl)-7H-pyrrolo[2,3-d]pyrimidine-5-carboxamide hydrochloride], in series [1] (Severe acute respiratory syndrome coronavirus 2, Vero C1008, 0.0094 μM, MOI 0.6 Plate 2, Table 4C), at 0.0094 µM the inhibition was 33.9%. The inhibition at 0.0375 µM in series [1] (Severe acute respiratory syndrome coronavirus 2, Vero C1008, 0.0375 μM, Plate 2, Table 6C) stood at 12.2%. Besides, the inhibition at 0.075 µM in series [1] (MOI 0.6 Plate 1, Table 3C) amounted to 45.6%; in series [1] (MOI 0.6 Plate 2, Table 4C), 83.1%. The inhibition at 0.15 µM in series [1] (Severe acute respiratory syndrome coronavirus 2, Vero C1008, 0.15 μM, MOI 0.6 Plate 1, Table 3C) was 90.1%.
Regarding `NC(=O)c1cn([C@@H]2O[C@H](CO)[C@@H](O)[C@H]2O)c2ncnc(N)c12` [Oya1, 4-amino-7-((2R,3R,4S,5R)-3,4-dihydroxy-5-(hydroxymethyl)tetrahydrofuran-2-yl)-7H-pyrrolo[2,3-d]pyrimidine-5-carboxamide], the “LD50, total dose” value in series [2] was 1.2 mg/kg. The “average toxicity margin or selectivity index” value in series [1] was 4.8. Besides, the “toxicity margin or selectivity index, high” value in series [1] was found to be 8.2. The “toxicity margin or selectivity index, low” value in series [1] is listed as 3.1. Besides, the “fold increase in activity for Oya1 over chlorpromazine HCl” value in series [1] (MOI 0.6, FIG. 4 and FIG. 5) turned out to be 1000 fold; in series [1] (MOI 1.3, FIG. 8 and FIG. 9), 1000 fold. For the same molecule, the inhibition at 0.075 µM in series [1] (MOI 0.6 Plate 1) stood at 95.5%; in series [1] (MOI 0.6 Plate 2) it was 91.9%; in series [1] (Plate 1) it was 93.8%; in series [1] (Plate 2), 99.4%. The anti-cancer activity result in series [3] (Phase I clinical trials during the 1960's) was “inactive against cancer”. For the same molecule, in series [3] (Phase I clinical trials, dosing levels of Table 8), the tolerability in humans entry is given as “well tolerated”. Also, the Observed toxic effect in series [3] (daily, highest dosing regimen 120 μg/kg/day x 41 days) is 0; in series [3] (thrice weekly, highest dosing regimen 50-250 μg/kg/day x 45 days), 0; in series [3] (weekly, highest dosing regimen 200 μg/kg/day x 150 days), 0. Besides, the Effect result in series [4] is recorded as “lethal”. The amount cleared in series [5] is recorded as 40%.
